Test results published in patent US20240425479A1, “HALO-SUBSTITUTED AMINO AZA-HETEROARYL COMPOUNDS AS INHIBITORS OF THE HAEMATOPOIETIC PROGENITOR KINASE 1 (HPK1)” (priority 2021, published 2024).

Assays:
[1] = molecular target: T1, Recombinant (1-346) HPK1 (h) (Homo sapiens, UniProt Q92918); assay: HPK1 human STE kinase enzymatic radiometric assay; assay type: biochemical; details: read-out: HPK1 IC50 nM Range
T1 construct: Recombinant (1-346) HPK1 (h) is incubated with 8 mM MOPS pH 7.0
T1 sequence (Q92918 1-346): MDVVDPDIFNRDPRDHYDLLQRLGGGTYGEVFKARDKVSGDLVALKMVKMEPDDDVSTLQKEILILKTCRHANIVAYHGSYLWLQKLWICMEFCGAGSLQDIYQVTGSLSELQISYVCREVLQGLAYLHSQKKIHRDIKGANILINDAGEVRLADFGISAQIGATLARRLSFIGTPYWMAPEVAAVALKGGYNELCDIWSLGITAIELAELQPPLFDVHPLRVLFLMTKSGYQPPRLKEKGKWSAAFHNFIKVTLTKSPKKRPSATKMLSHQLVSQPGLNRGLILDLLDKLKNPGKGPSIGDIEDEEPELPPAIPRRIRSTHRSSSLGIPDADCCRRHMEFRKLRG
Procedure, shortened: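 Compounds in 3-fold, 9-point serial dilution; kinase (residues 1-346) phosphorylates myelin basic protein (0.33 mg/mL) using [gamma-33P]-ATP at pH 7.0 (MOPS, EDTA, Mg acetate) for 40 min, room temperature. Acid-quenched mixture filtered onto P30 mats; incorporated radioactivity read by scintillation counting.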

Lck (h) = Lck (h) (Homo sapiens, UniProt P06239); assay: Lck human STE kinase enzymatic radiometric assay; assay type: biochemical; details: read-out: Lck IC50 nM Range
Sequence of Lck (h) (P06239 whole entry): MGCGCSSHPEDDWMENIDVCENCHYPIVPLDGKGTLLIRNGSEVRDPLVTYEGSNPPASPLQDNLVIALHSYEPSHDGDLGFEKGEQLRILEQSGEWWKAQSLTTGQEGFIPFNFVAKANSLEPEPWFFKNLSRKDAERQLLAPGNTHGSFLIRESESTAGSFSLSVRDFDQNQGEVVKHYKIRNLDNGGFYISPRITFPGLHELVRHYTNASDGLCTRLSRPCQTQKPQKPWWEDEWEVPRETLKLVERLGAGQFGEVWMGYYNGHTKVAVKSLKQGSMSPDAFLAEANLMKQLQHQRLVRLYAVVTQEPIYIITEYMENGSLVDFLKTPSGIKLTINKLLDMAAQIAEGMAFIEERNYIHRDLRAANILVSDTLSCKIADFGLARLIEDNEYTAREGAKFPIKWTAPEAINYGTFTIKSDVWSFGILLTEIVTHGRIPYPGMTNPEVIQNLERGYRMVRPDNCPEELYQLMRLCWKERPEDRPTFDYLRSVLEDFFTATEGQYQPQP

Row | Compound | IC50 [1] [nM] | IC50 (Lck (h)) [nM]
1 | CC(C)N1CCN(c2ccc(-c3nc(-c4cc5c(cc4F)C(=O)NCC5)c(N)nc3Cl)cc2)CC1 [Example I-8, 6-(3-amino-5-chloro-6-(4-(4-isopropylpiperazin-1-yl)phenyl)pyrazin-2-yl)-7-fluoro-3,4-dihydroisoquinolin-1(2H)-one] | 11 to 100 | > 1000
2 | Nc1nc(F)c(-c2ccc(N3CCN(C4CCC4)CC3)cc2)nc1-c1cc2c(cc1F)C(=O)NCC2 [Example I-48, 6-(3-amino-6-(4-(4-cyclobutylpiperazin-1-yl)phenyl)-5-fluoropyrazin-2-yl)-7-fluoro-3,4-dihydroisoquinolin-1(2H)-one] | 0.1 to 10 | > 1000
3 | C[C@@H]1CN(c2ccc(-c3nc(-c4cc5c(cc4F)C(=O)NCC5)c(N)nc3F)cc2CN(C)C)CCO1 [Example I-173, (R)-6-(3-amino-6-(3-((dimethylamino)methyl)-4-(2-methylmorpholino)phenyl)-5-fluoropyrazin-2-yl)-7-fluoro-3,4-dihydroisoquinolin-1(2H)-one] | 0.1 to 10 | 101 to 1000
4 | CC(C)N1C[C@H]2C[C@@]2(c2ccc(-c3nc(-c4cc5c(cc4F)C(=O)NCC5)c(N)nc3F)cc2)C1 [Example I-4, 6-(3-amino-5-fluoro-6-(4-((1R,5S)-3-isopropyl-3-azabicyclo[3.1.0]hexan-1-yl)phenyl)pyrazin-2-yl)-7-fluoro-3,4-dihydroisoquinolin-1(2H)-one] | 0.1 to 10 | > 1000
5 | CCN(C)Cc1cc(-c2nc(-c3ccc4c(=O)[nH]cc(F)c4c3)c(N)nc2F)ccc1C1CCOCC1 [Example I-238, 6-(3-amino-6-(3-((ethyl(methyl)amino)methyl)-4-(tetrahydro-2H-pyran-4-yl)phenyl)-5-fluoropyrazin-2-yl)-4-fluoroisoquinolin-1(2H)-one] | 0.1 to 10 | > 1000
6 | Cc1c[nH]c(=O)c2ccc(-c3nc(-c4ccc(N5CCOCC5)c(CN(C)C)c4)c(F)nc3N)cc12 [Example I-96, 6-(3-amino-6-(3-((dimethylamino)methyl)-4-morpholinophenyl)-5-fluoropyrazin-2-yl)-4-methylisoquinolin-1(2H)-one] | 0.1 to 10 | > 1000
7 | CC(C)N1CCC(c2ccc(-c3nc(-c4cc(F)c5c(c4)CCNC5=O)c(N)nc3F)cc2)CC1 [Example I-10, 6-(3-amino-5-fluoro-6-(4-(1-isopropylpiperidin-4-yl)phenyl)pyrazin-2-yl)-8-fluoro-3,4-dihydroisoquinolin-1(2H)-one] | 0.1 to 10 | 101 to 1000

Other lines, results leading:

Row | IC50 [1] [nM] | IC50 (Lck (h)) [nM] | Compound
8 | 0.1 to 10 | > 1000 | Cc1[nH]c(=O)c2ccc(-c3nc(-c4ccc(N5CCN(C(C)C)CC5)cc4)c(F)nc3N)cc2c1F [Example I-71, 6-(3-amino-5-fluoro-6-(4-(4-isopropylpiperazin-1-yl)phenyl)pyrazin-2-yl)-4-fluoro-3-methylisoquinolin-1(2H)-one]
9 | 11 to 100 | > 1000 | Cc1nc2cc(-c3nc(-c4ccc(N5CCN(C(C)C)CC5)cc4)c(F)nc3N)ccc2c(=O)[nH]1 [Example I-39, 7-(3-amino-5-fluoro-6-(4-(4-isopropylpiperazin-1-yl)phenyl)pyrazin-2-yl)-2-methylquinazolin-4(3H)-one]
10 | 0.1 to 10 | 101 to 1000 | Cc1c[nH]c(=O)c2ccc(-c3nc(-c4ccc(N5CCN(C(C)C)CC5)cc4)c(F)nc3N)cc12 [Example I-62, 6-(3-amino-5-fluoro-6-(4-(4-isopropylpiperazin-1-yl)phenyl)pyrazin-2-yl)-4-methylisoquinolin-1(2H)-one]
11 | 0.1 to 10 | > 1000 | CC(C)N1CCN(c2ccc(-c3nc(-c4cc5c(cc4F)C(=O)NCC5)c(N)nc3F)cc2)CC1 [Example I-2, 6-(3-amino-5-fluoro-6-(4-(4-isopropylpiperazin-1-yl)phenyl)pyrazin-2-yl)-7-fluoro-3,4-dihydroisoquinolin-1(2H)-one]
